Laboratory results published in US10227323B2, “Glucosylceramide synthase inhibitors for the treatment of diseases” (BIOMARIN PHARMACEUTICAL INC., priority 2013, dated 2019).

Target: T1, GCS (Canis lupus familiaris, UniProt A0A8I3MXG6)
T1 sequence (A0A8I3MXG6 1-394): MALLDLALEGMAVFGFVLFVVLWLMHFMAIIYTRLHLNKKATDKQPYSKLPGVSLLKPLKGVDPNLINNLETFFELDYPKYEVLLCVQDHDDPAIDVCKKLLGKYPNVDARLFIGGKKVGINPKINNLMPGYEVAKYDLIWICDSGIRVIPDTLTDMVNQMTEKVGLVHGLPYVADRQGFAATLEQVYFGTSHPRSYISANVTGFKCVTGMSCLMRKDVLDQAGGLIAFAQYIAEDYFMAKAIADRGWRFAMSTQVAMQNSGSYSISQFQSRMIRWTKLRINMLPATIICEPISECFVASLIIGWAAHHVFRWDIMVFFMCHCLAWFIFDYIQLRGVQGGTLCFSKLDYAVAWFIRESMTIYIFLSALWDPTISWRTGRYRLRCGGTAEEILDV
Test: Assay 1: GCS Enzymatic Assay (MDCK cell lysate, C6-NBD-Ceramide, LC/MS)
Assay type: biochemical, canine
Conditions: Table 1, MDCK cell lysate; for IC50: read-out: IC50 (nM) generated from Assay 1; for % inhibition generated from Assay 1: values marked *
Method: This assay was modified based on the study by Larsen et al. (J. Lipid Res. 2011, 53, 282). Madin-Darby canine kidney (MDCK) cell lysate was prepared using M-PER Mammalian Protein Extraction Reagent (Thermal Scientific) in the presence of a protease inhibitor cocktail (Roche). Protein concentration was determined using BCA assay kit (Pierce). Sixty micrograms of MDCK cell lysate was incubated with various concentrations of a compound described herein from 0.001 μM-10 μM, respectively, in 100 mM Tris buffer (pH 7.5) containing 10 mM MgCl2, 1 mM dithiothreitol, 1 mM EGTA, 2 mM NAD, 100 μM UDP-glucose, 10 μM C6-NBD-Ceramide (Matreya LLC, Pleasant Gap, Pa.), 35 μM dioleoylphosphatidylcholine and 5 μM sulfatide (Sigma) in a final reaction volume of 100 μL at 37° C. for 1 hour. 0.1% DMSO was used as mock treatment or control. The reaction was terminated by adding 100 μL acetonitrile solution and subjected to LC/MS analysis.
The quantitative analysis of NBD-Ceramide and glucosylceramide was performed on a Shimadzu ultra-fast liquid chromatography (Shimadzu, Japan) coupled with API 4000 triple quadrupole mass spectrometer (Applied Biosystems, Concord, Ontario, Canada). Sample separation was conducted on a Waters Xbridge™ BEH130 C18, 100 mm×4.6 mm i.d, 3.5 μm (Milford, Mass., USA). The mobile phase consisted of water and acetonitrile supplemented with 0.1% formic acid (v/v). The flow rate was 1.0 mL/min. The initial mobile phase was 20% acetonitrile and was ramped in a linear fashion to 50% acetonitrile in 0.4 min. From 0.4 to 1.5 min, the gradient was ramped to 98% acetonitrile, and then was held at […] until 8.0 min. Acetonitrile was reset to 20% in 1.5 min, and maintained until 10.0 min. The total run time was 10.0 min. The MS/MS detection was performed in ESI positive mode. The mass transition of NBD-Ceramide was m/z 576.36→558.40 under the collision energy of 15 V, and the mass transition of glucosylceramide was m/z 738.35→558.40 under 21V collision energy. The cell lysate was diluted with equal volume of acetonitrile. Aliquots of 50 μL diluted samples were added to 1.5 mL tubes, and 100 μL of acetonitrile containing internal standard (100 ng/mL tolbutamide) were added for protein precipitation. The mixture were vortexed and then centrifuged at 13000 rpm for 10 min. 70 μL of supernatant were mixed with 140 μL of H2O and the final solution were injected for LC/MS/MS analysis and IC50's and/or percent inhibitions calculated.

| IC50 [nM] | Structure (SMILES) | % inhibition generated from Assay 1 |
| --- | --- | --- |
| < 50 | O=C(N[C@H](CN1CCCC1)[C@H](O)c1ccc2c(c1)OCCO2)C(F)(F)c1cc2cc(Cl)cc(Cl)c2o1 [Compound 15, 2-(5,7-dichlorobenzofuran-2-yl)-N-((1R,2R)-1-(2,3-dihydrobenzo[b][1,4]dioxin-6-yl)-1-hydroxy-3-(pyrrolidin-1-yl)propan-2-yl)-2,2-difluoroacetamide] |  |
| < 50 | O=C(N[C@H](CN1CCCC1)[C@H](O)c1ccc2c(c1)OCCO2)C(F)(F)CCc1cccc(-c2ccccn2)c1 [Compound 16, N-((1R,2R)-1-(2,3-dihydrobenzo[b][1,4]dioxin-6-yl)-1-hydroxy-3-(pyrrolidin-1-yl)propan-2-yl)-2,2-difluoro-4-(3-(pyridin-2-yl)phenyl)butanamide] |  |
| 50 to 5000 | O=C(N[C@H](CN1CCCC1)[C@H](O)c1ccc2c(c1)OCCO2)C(F)(F)Cc1ccc2ccccc2c1 [Compound 17, N-((1R,2R)-1-(2,3-dihydrobenzo[b][1,4]dioxin-6-yl)-1-hydroxy-3-(pyrrolidin-1-yl)propan-2-yl)-2,2-difluoro-3-(naphthalen-2-yl)propanamide] |  |
| < 50 | O=C(N[C@H](CN1CCCC1)[C@H](O)c1ccc2c(c1)OCCO2)C(F)(F)c1cc2c(Cl)c(Cl)ccc2o1 [Compound 19, 2-(4,5-dichlorobenzofuran-2-yl)-N-((1R,2R)-1-(2,3-dihydrobenzo[b][1,4]dioxin-6-yl)-1-hydroxy-3-(pyrrolidin-1-yl)propan-2-yl)-2,2-difluoroacetamide] |  |
| < 50 | O=C(N[C@H](CN1CCCC1)[C@H](O)c1ccc2c(c1)OCCO2)C(F)(F)C1Cc2ccc(F)cc2C1 (stereo partly drawn) [Compound 21, N-((1R,2R)-1-(2,3-dihydrobenzo[b][1,4]dioxin-6-yl)-1-hydroxy-3-(pyrrolidin-1-yl)propan-2-yl)-2,2-difluoro-2-(5-fluoro-2,3-dihydro-1H-inden-2-yl)acetamide] |  |
| < 50 | O=C(N[C@H](CN1CCCC1)[C@H](O)c1ccc2c(c1)OCCO2)C(F)(F)CCc1ccc2ccccc2c1 [Compound 22, N-((1R,2R)-1-(2,3-dihydrobenzo[b][1,4]dioxin-6-yl)-1-hydroxy-3-(pyrrolidin-1-yl)propan-2-yl)-2,2-difluoro-4-(naphthalen-2-yl)butanamide] |  |
| < 50 | O=C(N[C@H](CN1CCCC1)[C@H](O)c1ccc2c(c1)OCCO2)C(F)(F)c1cc2ccccc2o1 [Compound 23, 2-(benzofuran-2-yl)-N-((1R,2R)-1-(2,3-dihydrobenzo[b][1,4]dioxin-6-yl)-1-hydroxy-3-(pyrrolidin-1-yl)propan-2-yl)-2,2-difluoroacetamide] |  |
| < 50 | O=C(N[C@H](CN1CCCC1)[C@H](O)c1ccc2c(c1)OCCO2)C(F)(F)c1cc2cc(F)ccc2o1 [Compound 24, N-((1R,2R)-1-(2,3-dihydrobenzo[b][1,4]dioxin-6-yl)-1-hydroxy-3-(pyrrolidin-1-yl)propan-2-yl)-2,2-difluoro-2-(5-fluorobenzofuran-2-yl)acetamide] |  |
| < 50 | O=C(N[C@H](CN1CCCC1)[C@H](O)c1ccc2c(c1)OCCO2)C(F)(F)c1cc2cc(F)ccc2s1 [Compound 28, N-((1R,2R)-1-(2,3-dihydrobenzo[b][1,4]dioxin-6-yl)-1-hydroxy-3-(pyrrolidin-1-yl)propan-2-yl)-2,2-difluoro-2-(5-fluorobenzo[b]thiophen-2-yl)acetamide] |  |
| < 50 | O=C(N[C@H](CN1CCCC1)[C@H](O)c1ccc2c(c1)OCCO2)C(F)(F)c1cc2cc(C(F)(F)F)ccc2o1 [Compound 30, N-((1R,2R)-1-(2,3-dihydrobenzo[b][1,4]dioxin-6-yl)-1-hydroxy-3-(pyrrolidin-1-yl)propan-2-yl)-2,2-difluoro-2-(5-(trifluoromethyl)benzofuran-2-yl)acetamide] |  |

The next lines start with the compound.

| Structure (SMILES) | IC50 [nM] | % inhibition generated from Assay 1 |
| --- | --- | --- |
| O=C(N[C@H](CN1CCCC1)[C@H](O)c1ccc2c(c1)OCCO2)C(F)(F)c1cc2cc(Cl)ccc2o1 [Compound 11, 2-(5-chlorobenzofuran-2-yl)-N-((1R,2R)-1-(2,3-dihydrobenzo[b][1,4]dioxin-6-yl)-1-hydroxy-3-(pyrrolidin-1-yl)propan-2-yl)-2,2-difluoroacetamide] | < 50 |  |
| O=C(N[C@H](CN1CCCC1)[C@@H](O)c1cc2c(cc1F)OCCO2)C(F)(F)C1Cc2ccccc2C1 [Compound 12B, 2-(2,3-dihydro-1H-inden-2-yl)-2,2-difluoro-N-((1S,2R)-1-(7-fluoro-2,3-dihydrobenzo[b][1,4]dioxin-6-yl)-1-hydroxy-3-(pyrrolidin-1-yl)propan-2-yl)acetamide] | 50 to 5000 |  |
| O=C(N[C@H](CN1CCCC1)[C@H](O)c1ccc2c(c1)OCCO2)C(F)(F)C1Cc2cc3nccnc3cc2C1 [Compound 13, 2-(7,8-dihydro-6H-cyclopenta[g]quinoxalin-7-yl)-N-((1R,2R)-1-(2,3-dihydrobenzo[b][1,4]dioxin-6-yl)-1-hydroxy-3-(pyrrolidin-1-yl)propan-2-yl)-2,2-difluoroacetamide] | 50 to 5000 |  |
| Cn1c(C(F)(F)C(=O)N[C@H](CN2CCCC2)[C@H](O)c2ccc3c(c2)OCCO3)cc2cc(Cl)ccc21 [Compound 14, 2-(5-chloro-1-methyl-1H-indol-2-yl)-N-((1R,2R)-1-(2,3-dihydrobenzo[b][1,4]dioxin-6-yl)-1-hydroxy-3-(pyrrolidin-1-yl)propan-2-yl)-2,2-difluoroacetamide] | < 50 |  |
| O=C(N[C@H](CN1CCCC1)[C@H](O)c1ccc2c(c1)OCCO2)C(F)(F)c1cc2cc(Cl)c(Cl)cc2o1 [Compound 18, 2-(5,6-dichlorobenzofuran-2-yl)-N-((1R,2R)-1-(2,3-dihydrobenzo[b][1,4]dioxin-6-yl)-1-hydroxy-3-(pyrrolidin-1-yl)propan-2-yl)-2,2-difluoroacetamide] |  | B* (the compound had a % inhibition of greater than or equal to about 3% but less than about 50%) |
| O=C(N[C@H](CN1CCCC1)[C@H](O)c1ccc2c(c1)OCCO2)C(F)(F)Cc1cccc(-c2ccccn2)c1 [Compound 20, N-((1R,2R)-1-(2,3-dihydrobenzo[b][1,4]dioxin-6-yl)-1-hydroxy-3-(pyrrolidin-1-yl)propan-2-yl)-2,2-difluoro-3-(3-(pyridin-2-yl)phenyl)propanamide] |  | B* (the compound had a % inhibition of greater than or equal to about 3% but less than about 50%) |
| O=C(N[C@H](CN1CCCC1)[C@@H](O)c1ccc2c(c1)OCCO2)C(F)(F)CCc1ccc2ccccc2c1 [Compound 22K, N-((1S,2R)-1-(2,3-dihydrobenzo[b][1,4]dioxin-6-yl)-1-hydroxy-3-(pyrrolidin-1-yl)propan-2-yl)-2,2-difluoro-4-(naphthalen-2-yl)butanamide] |  | B* (the compound had a % inhibition of greater than or equal to about 3% but less than about 50%) |
| O=C(N[C@H](CN1CCCC1)[C@H](O)c1ccc2c(c1)OCCO2)C(F)(F)/C=C/c1ccc(Cl)cc1 [Compound 25, (E)-4-(4-chlorophenyl)-N-((1R,2R)-1-(2,3-dihydrobenzo[b][1,4]dioxin-6-yl)-1-hydroxy-3-(pyrrolidin-1-yl)propan-2-yl)-2,2-difluorobut-3-enamide] |  | B* (the compound had a % inhibition of greater than or equal to about 3% but less than about 50%) |
| NC1CC2CCC(C1)N2C[C@@H](NC(=O)C(F)(F)c1cc2cc(Cl)ccc2o1)[C@H](O)c1ccc2c(c1)OCCO2 (stereo partly drawn) [Compound 26, N-((1R,2R)-3-(3-amino-8-azabicyclo[3.2.1]octan-8-yl)-1-(2,3-dihydrobenzo[b][1,4]dioxin-6-yl)-1-hydroxypropan-2-yl)-2-(5-chlorobenzofuran-2-yl)-2,2-difluoroacetamide] |  | B* (the compound had a % inhibition of greater than or equal to about 3% but less than about 50%) |
